Laboratory results as given in patent publication US11897867B2, “6-phenyl-4,5-dihydropyridazin-3(2H)-one derivatives as PDE3A and PDE3B inhibitors for treating cancer” (Bayer Aktiengesellschaft, priority 2017, dated 2024).

How the values were obtained:
human full length PDE3B = target: T1, human full length PDE3B (Homo sapiens, UniProt Q13370); assay: PDE3B enzyme inhibition (3H-cAMP Scintillation Proximity Assay); type: biochemical; conditions: PDE3B cell extract from Sf9 cells, 60 min room temperature; read-out: Target IC50 PDE3B IC50
T1 construct: Sf9 cells overexpressing human full length PDE3B; purchased SB Drug Discovery, UK; host or cells: Sf9 cells (cell extract)
Procedure, shortened: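 SPA with Sf9 cell extract overexpressing human full-length PDE3B, diluted for linear kinetics and <70% substrate turnover, in 50 mM Tris/HCl pH 7.5, 8.3 mM MgCl2, 1.7 mM EDTA, 0.2% BSA. [8-3H]cAMP substrate, 60 min at room temperature, stopped with yttrium SPA beads. IC50 from sigmoidal fit of % activity vs log concentration.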

[1] = system: HeLa cells (cervical cancer); assay: Cell proliferation measurement (Cell Titer Glo), HeLa; type: cell-based; conditions: Homo sapiens, 72 h treatment, read-out: Anti-proliferation IC50 HeLa (Cervical cancer)
Procedure, shortened: (§1)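 Cells (1000/well; 500 for HeLa) plated overnight at 37 °C, then exposed to a ≥10-point compound dilution series for 72 h at 37 °C, DMSO 0.3% final as vehicle. Viability read by CellTiter-Glo luminescence; IC50 from 4-parameter fit against untreated wells.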

human full length PDE3A = target: T2, human full length PDE3A (Homo sapiens, UniProt Q14432); assay: PDE3A enzyme inhibition (3H-cAMP Scintillation Proximity Assay); type: biochemical; conditions: PDE3A cell extract from Sf9 cells, 60 min room temperature; read-out: Target IC50 PDE3A IC50
T2 construct: Sf9 cells overexpressing human full length PDE3A; purchased SB Drug Discovery, UK; host or cells: Sf9 cells (cell extract)
Procedure, shortened: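 Sf9 cell extract overexpressing human full-length PDE3A, diluted for linear kinetics (<70% substrate used), in 50 mM Tris/HCl pH 7.5, 8.3 mM MgCl2, 1.7 mM EDTA, 0.2% BSA. [8-3H]cAMP substrate, 60 min at room temperature, yttrium SPA bead read-out; IC50 from sigmoidal curves of % activity.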

SK-MEL-3 (melanoma) = assay: Cell proliferation measurement (Cell Titer Glo), SK-MEL-3; type: cell-based; conditions: Homo sapiens, SK-MEL3, SK-MEL-3 cells, 72 h treatment, read-out: Anti-proliferation IC50 SK-MEL-3 (melanoma)
Procedure, shortened: as §1

T2 sequence (Q14432 whole entry): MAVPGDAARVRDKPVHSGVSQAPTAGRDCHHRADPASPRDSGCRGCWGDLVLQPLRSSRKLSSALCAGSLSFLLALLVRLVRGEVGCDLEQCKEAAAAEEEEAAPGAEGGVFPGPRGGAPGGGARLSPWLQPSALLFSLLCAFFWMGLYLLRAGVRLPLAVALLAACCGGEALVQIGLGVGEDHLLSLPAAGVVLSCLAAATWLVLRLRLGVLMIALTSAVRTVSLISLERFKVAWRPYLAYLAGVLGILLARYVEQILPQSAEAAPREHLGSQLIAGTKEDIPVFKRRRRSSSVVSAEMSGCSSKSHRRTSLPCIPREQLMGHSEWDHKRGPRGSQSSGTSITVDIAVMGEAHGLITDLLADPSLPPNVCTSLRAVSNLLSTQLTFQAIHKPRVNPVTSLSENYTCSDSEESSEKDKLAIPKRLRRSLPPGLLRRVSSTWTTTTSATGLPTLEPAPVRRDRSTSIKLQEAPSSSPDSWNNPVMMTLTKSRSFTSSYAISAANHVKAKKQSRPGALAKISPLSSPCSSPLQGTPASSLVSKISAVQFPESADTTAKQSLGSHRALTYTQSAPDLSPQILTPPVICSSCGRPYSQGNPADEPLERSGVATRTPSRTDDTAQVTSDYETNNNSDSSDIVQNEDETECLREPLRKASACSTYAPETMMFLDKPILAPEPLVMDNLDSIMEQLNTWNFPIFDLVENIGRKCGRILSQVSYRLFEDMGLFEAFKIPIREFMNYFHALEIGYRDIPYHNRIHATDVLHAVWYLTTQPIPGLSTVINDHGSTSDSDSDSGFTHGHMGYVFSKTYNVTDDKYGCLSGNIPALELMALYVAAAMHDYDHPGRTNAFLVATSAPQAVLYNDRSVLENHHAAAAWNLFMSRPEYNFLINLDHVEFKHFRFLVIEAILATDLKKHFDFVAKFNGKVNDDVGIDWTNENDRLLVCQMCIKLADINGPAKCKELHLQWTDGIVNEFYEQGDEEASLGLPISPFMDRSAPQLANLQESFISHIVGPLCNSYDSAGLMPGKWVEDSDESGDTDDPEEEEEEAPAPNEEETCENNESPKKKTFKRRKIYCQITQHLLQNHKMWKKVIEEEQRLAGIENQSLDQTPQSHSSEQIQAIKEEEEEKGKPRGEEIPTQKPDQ
T1 sequence (Q13370 whole entry): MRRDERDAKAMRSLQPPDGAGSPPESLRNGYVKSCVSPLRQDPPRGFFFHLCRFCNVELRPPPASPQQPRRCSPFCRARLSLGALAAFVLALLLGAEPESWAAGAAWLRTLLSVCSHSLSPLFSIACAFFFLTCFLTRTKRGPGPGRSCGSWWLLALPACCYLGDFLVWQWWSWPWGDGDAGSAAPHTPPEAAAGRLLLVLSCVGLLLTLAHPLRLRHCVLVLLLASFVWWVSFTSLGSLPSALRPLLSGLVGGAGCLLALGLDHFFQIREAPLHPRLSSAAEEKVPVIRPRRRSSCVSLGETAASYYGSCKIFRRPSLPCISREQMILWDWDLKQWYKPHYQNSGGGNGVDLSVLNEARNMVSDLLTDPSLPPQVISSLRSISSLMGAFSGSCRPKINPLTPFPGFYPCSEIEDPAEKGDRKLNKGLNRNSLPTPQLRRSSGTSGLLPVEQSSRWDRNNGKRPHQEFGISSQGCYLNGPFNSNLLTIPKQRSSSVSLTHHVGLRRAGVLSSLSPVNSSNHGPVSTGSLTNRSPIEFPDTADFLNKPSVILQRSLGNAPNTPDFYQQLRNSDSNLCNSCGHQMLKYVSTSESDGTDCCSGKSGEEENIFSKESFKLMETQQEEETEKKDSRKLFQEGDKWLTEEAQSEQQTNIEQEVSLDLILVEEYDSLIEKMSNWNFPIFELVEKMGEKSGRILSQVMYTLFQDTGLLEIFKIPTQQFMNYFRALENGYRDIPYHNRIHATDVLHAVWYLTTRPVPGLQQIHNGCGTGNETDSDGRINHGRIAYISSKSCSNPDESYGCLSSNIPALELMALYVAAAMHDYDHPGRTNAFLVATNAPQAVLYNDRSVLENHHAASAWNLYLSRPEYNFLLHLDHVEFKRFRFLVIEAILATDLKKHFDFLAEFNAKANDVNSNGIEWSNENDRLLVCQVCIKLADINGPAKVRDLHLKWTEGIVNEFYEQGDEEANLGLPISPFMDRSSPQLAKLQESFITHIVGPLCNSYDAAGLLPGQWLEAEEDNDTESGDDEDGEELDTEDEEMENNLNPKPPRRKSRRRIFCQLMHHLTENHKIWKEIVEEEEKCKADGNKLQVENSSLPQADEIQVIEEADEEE

## Nc1ccc(-c2ccc(C3=NNC(=O)CC3)cc2F)cc1 [Example 76, 6-(4′-amino-2-fluoro[1,1′-biphenyl]-4-yl)-4,5-dihydropyridazin-3(2H)-one]
Human full length PDE3B
  IC50: 89 nM
[1]
  IC50: 5.52 nM
Human full length PDE3A
  IC50: 90 nM
SK-MEL-3 (melanoma)
  IC50: 8.73 nM

## CCc1ccccc1-c1ccc(C2=NNC(=O)CC2)cc1F [Example 81, 6-(2′-ethyl-2-fluoro[1,1′-biphenyl]-4-yl)-4,5-dihydropyridazin-3(2H)-one]
Human full length PDE3B
  IC50: 230 nM
[1]
  IC50: 13.9 nM
Human full length PDE3A
  IC50: 370 nM
SK-MEL-3 (melanoma)
  IC50: 26.3 nM

## Cc1cccc(-c2ccc(C3=NNC(=O)CC3)cc2F)c1C [Example 85, 6-(2-fluoro-2′,3′-dimethyl[1,1′-biphenyl]-4-yl)-4,5-dihydropyridazin-3(2H)-one]
Human full length PDE3B
  IC50: 150 nM
[1]
  IC50: 18.9 nM
Human full length PDE3A
  IC50: 240 nM
SK-MEL-3 (melanoma)
  IC50: 40.4 nM

## O=C1CCC(c2ccc(-c3ccc4cc[nH]c4c3)c(F)c2)=NN1 [Example 74, 6-[3-fluoro-4-(1H-indol-6-yl)phenyl]-4,5-dihydropyridazin-3(2H)-one]
Human full length PDE3B
  IC50: 180 nM
[1]
  IC50: 13.3 nM
Human full length PDE3A
  IC50: 110 nM
SK-MEL-3 (melanoma)
  IC50: 21 nM

## Cc1ccc(C)c(-c2ccc(C3=NNC(=O)CC3)cc2F)c1 [Example 88, 6-(2-fluoro-2′,5′-dimethyl[1,1′-biphenyl]-4-yl)-4,5-dihydropyridazin-3(2H)-one]
Human full length PDE3B
  IC50: 230 nM
[1]
  IC50: 91.6 nM
Human full length PDE3A
  IC50: 230 nM
SK-MEL-3 (melanoma)
  IC50: > 100 nM

## Cc1cc(-c2ccc(C3=NNC(=O)CC3)cc2F)ccc1F [Example 84, 6-(2,4′-difluoro-3′-methyl[1,1′-biphenyl]-4-yl)-4,5-dihydropyridazin-3(2H)-one]
Human full length PDE3B
  IC50: 220 nM
[1]
  IC50: 16.1 nM
Human full length PDE3A
  IC50: 270 nM
SK-MEL-3 (melanoma)
  IC50: 41 nM

## O=C1CCC(c2ccc(-c3ccc(F)c(F)c3F)c(F)c2)=NN1 [Example 39, 6-(2,2′,3′,4′-tetrafluoro[1,1′-biphenyl]-4-yl)-4,5-dihydropyridazin-3(2H)-one]
Human full length PDE3B
  IC50: 80 nM
[1]
  IC50: 5.25 nM
Human full length PDE3A
  IC50: 82 nM
SK-MEL-3 (melanoma)
  IC50: 8.4 nM

## O=C1CCC(c2ccc(-c3ccccc3OC(F)(F)F)c(F)c2)=NN1 [Example 44, 6-[2-fluoro-2′-(trifluoromethoxy)[1,1′-biphenyl]-4-yl]-4,5-dihydropyridazin-3(2H)-one]
Human full length PDE3B
  IC50: 95 nM
[1]
  IC50: 17.9 nM
Human full length PDE3A
  IC50: 180 nM
SK-MEL-3 (melanoma)
  IC50: 34.5 nM

## CC1CCCN1c1ccc(C2=NNC(=O)CC2)cc1C(F)(F)F (stereo not shown) [Example 20, 6-{4-[2-Methylpyrrolidin-1-yl]-3-(trifluoromethyl)phenyl}-4,5-dihydropyridazin-3(2H)-one]
Human full length PDE3B
  IC50: 160 nM
[1]
  IC50: 33.5 nM
Human full length PDE3A
  IC50: 220 nM
SK-MEL-3 (melanoma)
  IC50: 47.7 nM

## N#Cc1ccc(-c2ccc(C3=NNC(=O)CC3)cc2F)cc1 [Example 46, 2′-fluoro-4′-(6-oxo-1,4,5,6-tetrahydropyridazin-3-yl)[1,1′-biphenyl]-4-carbonitrile]
Human full length PDE3B
  IC50: 37 nM
[1]
  IC50: 9.65 nM
Human full length PDE3A
  IC50: 61 nM
SK-MEL-3 (melanoma)
  IC50: 12.7 nM

## CCOc1ccccc1-c1ccc(C2=NNC(=O)CC2)cc1F [Example 52, 6-(2′-ethoxy-2-fluoro[1,1′-biphenyl]-4-yl)-4,5-dihydropyridazin-3(2H)-one]
Human full length PDE3B
  IC50: 65 nM
[1]
  IC50: 66.8 nM
Human full length PDE3A
  IC50: 95 nM
SK-MEL-3 (melanoma)
  IC50: > 100 nM

## Cc1ccncc1-c1ccc(C2=NNC(=O)CC2)cc1F [Example 67, 6-[3-fluoro-4-(4-methylpyridin-3-yl)phenyl]-4,5-dihydropyridazin-3(2H)-one]
Human full length PDE3B
  IC50: 28 nM
[1]
  IC50: 2.11 nM
Human full length PDE3A
  IC50: 56 nM
SK-MEL-3 (melanoma)
  IC50: 3.66 nM

## Cc1cc(C2=NNC(=O)CC2)ccc1-c1cccc(F)c1 [Example 112, 6-(3′-fluoro-2-methyl[1,1′-biphenyl]-4-yl)-4,5-dihydropyridazin-3(2H)-one]
Human full length PDE3B
  IC50: 110 nM
[1]
  IC50: 13.9 nM
Human full length PDE3A
  IC50: 140 nM
SK-MEL-3 (melanoma)
  IC50: 58.2 nM
